Test results published in US20190322676A1, “CERAMIDE GALACTOSYLTRANSFERASE INHIBITORS FOR THE TREATMENT OF DISEASE” (BioMarin Pharmaceutical Inc., priority 2016, published 2019).
Counter-ions that a name gives are not always drawn.

Each compound was assayed against T1, human CGT (ceramide galactosyltransferase), CHO/CGT lysate (Homo sapiens, UniProt Q16880) (assay: CGT enzyme assay, RapidFire/MS/MS readout (Table 1 ranges with one asterisk *)). Details: RapidFire method (range with one asterisk *).
T1 construct: Full-length human CGT cDNA was cloned into the BamH1/Xho1 site of pcDNA3.1 (+); expressed in transfected cells; host or cells: Chinese hamster ovary (CHO) cells; lysate prepared with M-PER
T1 sequence (Q16880 21-541): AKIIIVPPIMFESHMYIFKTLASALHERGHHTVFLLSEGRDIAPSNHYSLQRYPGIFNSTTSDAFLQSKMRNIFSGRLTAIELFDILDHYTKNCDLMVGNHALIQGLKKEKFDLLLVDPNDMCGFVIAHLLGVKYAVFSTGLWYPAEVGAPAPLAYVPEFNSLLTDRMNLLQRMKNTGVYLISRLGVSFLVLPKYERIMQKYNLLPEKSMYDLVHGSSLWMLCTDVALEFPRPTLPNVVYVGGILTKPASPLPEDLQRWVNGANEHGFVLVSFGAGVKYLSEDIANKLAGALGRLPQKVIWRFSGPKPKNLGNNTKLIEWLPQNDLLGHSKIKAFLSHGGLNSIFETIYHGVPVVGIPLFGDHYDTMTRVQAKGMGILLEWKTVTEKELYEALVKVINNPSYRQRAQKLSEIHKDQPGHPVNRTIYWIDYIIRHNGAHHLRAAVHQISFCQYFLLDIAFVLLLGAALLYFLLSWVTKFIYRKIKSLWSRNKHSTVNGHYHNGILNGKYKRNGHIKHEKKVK
Type: biochemical
Outline: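 Lysate (4 μg) of CHO cells transfected with full-length human CGT incubated 1 h at 37 °C with compound (0.001–50 μM) in pH 7.2 HEPES buffer with 10 μM C6-NBD-dihydro-ceramide, 17.5 μM UDP-galactose, Mg2+/Mn2+, CHAPS, BSA, 0.5% DMSO; ** set also contained 0.01% Tween 80. Product quantified by RapidFire/MS/MS, normalized to internal standard; IC50 from sigmoidal variable-slope fits.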

SMILES	IC50 [µM]
CCOc1ccc(C(F)(F)[C@@H](C(=O)N2C3CCC2CC(N)C3)N(C)S(=O)(=O)c2ccc3cc(OC4CCCC4)ccc3c2)cc1 (stereo partly drawn) [Compound 114-1, N-((2R)-3-(3-amino-8-azabicyclo[3.2.1]octan-8-yl)-1-(4-ethoxyphenyl)-1,1-difluoro-3-oxopropan-2-yl)-6-(cyclopentyloxy)-N-methylnaphthalene-2-sulfonamide]	1 to 10
NC1CCN(C(=O)[C@H](NS(=O)(=O)c2ccc3cc(OC4CCCC4)ccc3c2)C(F)(F)c2ccc(Oc3ccccc3)cc2)CC1 [Compound 61-2, (S)—N-(3-(4-aminopiperidin-1-yl)-1,1-difluoro-3-oxo-1-(4-phenoxyphenyl)propan-2-yl)-6-(cyclopentyloxy)naphthalene-2-sulfonamide]	< 1
CC(C)Oc1ccc2cc(S(=O)(=O)N(C)[C@H](C(=O)N3C4CCC3CC(N)C4)C(F)(F)c3ccc(Br)cc3)ccc2c1 (stereo partly drawn) [Compound 46-1, N-((2R)-3-(3-amino-8-azabicyclo[3.2.1]octan-8-yl)-1-(4-bromophenyl)-1,1-difluoro-3-oxopropan-2-yl)-6-isopropoxy-N-methylnaphthalene-2-sulfonamide trifluoroacetate]	1 to 10
NC1CC2CCC(C1)N2C(=O)[C@@H](NS(=O)(=O)c1ccc2cc(OC3CCCC3)ccc2c1)C(F)(F)c1ccc(-c2ccc(Cl)s2)cc1 (stereo partly drawn) [Compound 101-1, N-((2R)-3-(3-amino-8-azabicyclo[3.2.1]octan-8-yl)-1-(4-(5-chlorothiophen-2-yl)phenyl)-1,1-difluoro-3-oxopropan-2-yl)-6-(cyclopentyloxy)naphthalene-2-sulfonamide]	< 1
CN([C@@H](C(=O)N1C2CCC1CC(N)C2)C(F)(F)c1ccc(OCCN2CCCCC2)cc1)S(=O)(=O)c1ccc2cc(OC3CCCC3)ccc2c1 (stereo partly drawn) [Compound 116-2, N-((2S)-3-(3-amino-8-azabicyclo[3.2.1]octan-8-yl)-1,1-difluoro-3-oxo-1-(4-(2-(piperidin-1-yl)ethoxy)phenyl)propan-2-yl)-6-(cyclopentyloxy)-N-methylnaphthalene-2-sulfonamide]	30 to 100
N[C@H]1CCCN(C(=O)[C@@H](NS(=O)(=O)c2ccc3cc(OC4CCCC4)ccc3c2)C(F)(F)c2ccc(Br)cc2)C1 [Compound 132-1, N—((R)-3-((S)-3-aminopiperidin-1-yl)-1-(4-bromophenyl)-1,1-difluoro-3-oxopropan-2-yl)-6-(cyclopentyloxy)naphthalene-2-sulfonamide trifluoroacetate]	1 to 10
CCOc1ccc(C(F)(F)[C@H](C(=O)N2C3CCC2CC(N)C3)N(C)S(=O)(=O)c2ccc3cc(OC4CCCC4)ccc3c2)cc1 (stereo partly drawn) [Compound 114-2, N-((2S)-3-(3-amino-8-azabicyclo[3.2.1]octan-8-yl)-1-(4-ethoxyphenyl)-1,1-difluoro-3-oxopropan-2-yl)-6-(cyclopentyloxy)-N-methylnaphthalene-2-sulfonamide]	10 to 30
NC1CC2CCC(C1)N2C(=O)[C@H](NS(=O)(=O)c1ccc(OCC2CCCCC2)cc1)C(F)(F)c1ccc(-c2ccc(Cl)cc2)cc1 (stereo partly drawn) [Compound 50-2, N-((2S)-3-(3-amino-8-azabicyclo[3.2.1]octan-8-yl)-1-(4′-chloro-[1,1′-biphenyl]-4-yl)-1,1-difluoro-3-oxopropan-2-yl)-4-(cyclohexylmethoxy)benzenesulfonamide trifluoroacetate]	10 to 30
NC1CCN(C(=O)[C@@H](NC(=O)[C@H](O)c2ccc(OCC3CCCCC3)cc2)C(F)(F)c2ccc(-c3ccc(Cl)cc3)cc2)CC1 [Compound 141-1, (R)—N—((R)-3-(4-aminopiperidin-1-yl)-1-(4′-chloro-[1,1′-biphenyl]-4-yl)-1,1-difluoro-3-oxopropan-2-yl)-2-(4-(cyclohexylmethoxy)phenyl)-2-hydroxyacetamide trifluoroacetate]	1 to 10
COc1ccc(C(F)(F)[C@H](NS(=O)(=O)c2ccc3cc(OC4CCCC4)ccc3c2)C(=O)N2C3CCC2CC(N)C3)cc1 (stereo partly drawn) [Compound 45-1, N-((2R)-3-(3-amino-8-azabicyclo[3.2.1]octan-8-yl)-1,1-difluoro-1-(4-methoxyphenyl)-3-oxopropan-2-yl)-6-(cyclopentyloxy)naphthalene-2-sulfonamide]	10 to 30
NC1CC2CCC(C1)N2C(=O)[C@@H](NS(=O)(=O)c1ccc2cc(OC3CCCC3)ccc2c1)C(F)(F)c1cccc(Oc2ccccc2)c1 (stereo partly drawn) [Compound 107-1, N-((2R)-3-(3-amino-8-azabicyclo[3.2.1]octan-8-yl)-1,1-difluoro-3-oxo-1-(3-phenoxyphenyl)propan-2-yl)-6-(cyclopentyloxy)naphthalene-2-sulfonamide]	< 1
NC1CCN(C(=O)[C@H](NS(=O)(=O)c2ccc(OCC3CCCCC3)cc2)C(F)(F)c2cccc(Oc3ccccc3)c2)CC1 [Compound 109-2, (S)—N-(3-(4-aminopiperidin-1-yl)-1,1-difluoro-3-oxo-1-(3-phenoxyphenyl)propan-2-yl)-4-(cyclohexylmethoxy) benzenesulfonamide trifluoroacetate]	1 to 10
CCCCOc1ccc(C(F)(F)[C@@H](C(=O)N2C3CCC2CC(N)C3)N(C)S(=O)(=O)c2ccc3cc(OC4CCCC4)ccc3c2)cc1 (stereo partly drawn) [Compound 51-1, N-((2R)-3-(3-amino-8-azabicyclo[3.2.1]octan-8-yl)-1-(4-butoxyphenyl)-1,1-difluoro-3-oxopropan-2-yl)-6-(cyclopentyloxy)-N-methylnaphthalene-2-sulfonamide]	1 to 10
CCCCOc1ccc(C(F)(F)[C@H](NS(=O)(=O)c2ccc3cc(OC4CCCC4)ccc3c2)C(=O)N2CCC(N)CC2)cc1 [Compound 80-1, (R)—N-(3-(4-aminopiperidin-1-yl)-1-(4-butoxyphenyl)-1,1-difluoro-3-oxopropan-2-yl)-6-(cyclopentyloxy)naphthalene-2-sulfonamide]	< 1
NC1CC2CCC(C1)N2C(=O)[C@H](NS(=O)(=O)c1ccc2cc(OC3CCCC3)ccc2c1)C(F)(F)c1cccc(-c2ccccc2)c1 (stereo partly drawn) [Compound 66-2, N-((2S)-1-([1,1′-biphenyl]-3-yl)-3-(3-amino-8-azabicyclo[3.2.1]octan-8-yl)-1,1-difluoro-3-oxopropan-2-yl)-6-(cyclopentyloxy)naphthalene-2-sulfonamide]	1 to 10
CCCCOc1ccc(C(F)(F)[C@@H](C(=O)N2CCC(N)CC2)N(C)S(=O)(=O)c2ccc3cc(OC4CCCC4)ccc3c2)cc1 [Compound 53-1, (R)—N-(3-(4-aminopiperidin-1-yl)-1-(4-butoxyphenyl)-1,1-difluoro-3-oxopropan-2-yl)-6-(cyclopentyloxy)-N-methylnaphthalene-2-sulfonamide]	1 to 10
NC1CC2CCC(C1)N2C(=O)[C@@H](NS(=O)(=O)c1ccc(OCC2CCCCC2)cc1)C(F)(F)c1ccc(C(F)(F)F)cc1 (stereo partly drawn) [Compound 59-1, N-((2R)-3-(3-amino-8-azabicyclo[3.2.1]octan-8-yl)-1,1-difluoro-3-oxo-1-(4-(trifluoromethyl)phenyl)propan-2-yl)-4-(cyclohexylmethoxy)benzenesulfonamide]	< 1
NC1CC2CCC(C1)N2C(=O)[C@@H](NS(=O)(=O)c1ccc(OCC2CCCC2)cc1)C(F)(F)c1ccc(C(F)(F)F)cc1 (stereo partly drawn) [Compound 60-1, N-((2R)-3-(3-amino-8-azabicyclo[3.2.1]octan-8-yl)-1,1-difluoro-3-oxo-1-(4-(trifluoromethyl)phenyl)propan-2-yl)-4-(cyclopentylmethoxy) benzenesulfonamide]	1 to 10
NC1CC2CCC(C1)N2C(=O)[C@H](NS(=O)(=O)c1ccc2cc(OC3CCCC3)ccc2c1)C(F)(F)c1ccc(C(F)(F)F)cc1 (stereo partly drawn) [Compound 54-2, N-((2S)-3-(3-amino-8-azabicyclo[3.2.1]octan-8-yl)-1,1-difluoro-3-oxo-1-(4-(trifluoromethyl)phenyl)propan-2-yl)-6-(cyclopentyloxy) naphthalene-2-sulfonamide]	10 to 30
NC1CC2CCC(C1)N2C(=O)[C@H](NS(=O)(=O)c1ccc2c(cnn2CC2CCCC2)c1)C(F)(F)c1ccc(C(F)(F)F)cc1 (stereo partly drawn) [Compound 92-2, N-((2S)-3-(3-amino-8-azabicyclo[3.2.1]octan-8-yl)-1,1-difluoro-3-oxo-1-(4-(trifluoromethyl)phenyl)propan-2-yl)-1-(cyclopentylmethyl)-1H-indazole-5-sulfonamide]	10 to 30
CN([C@@H](C(=O)N1CCC(N)CC1)C(F)(F)c1ccc(Cl)cc1)S(=O)(=O)c1ccc2cc(OC3CCCC3)ccc2c1 [Compound 100-2, (S)—N-(3-(4-aminopiperidin-1-yl)-1-(4-chlorophenyl)-1,1-difluoro-3-oxopropan-2-yl)-6-(cyclopentyloxy)-N-methylnaphthalene-2-sulfonamide]	10 to 30
NC1CC2CCC(C1)N2C(=O)[C@@H](NS(=O)(=O)c1ccc2c(cnn2CC2CCCC2)c1)C(F)(F)c1ccc(-c2ccc(Cl)cc2)cc1 (stereo partly drawn) [Compound 94-1, N-((2R)-3-(3-amino-8-azabicyclo[3.2.1]octan-8-yl)-1-(4′-chloro-[1,1′-biphenyl]-4-yl)-1,1-difluoro-3-oxopropan-2-yl)-1-(cyclopentylmethyl)-1H-indazole-5-sulfonamide]	1 to 10
